Measurements reported in patent US4278671A, “7-[2-(2-Aminothiazol-4-yl)-2-(syn)-methoxyiminoacetamido] cephalosporins” (Takeda Chemical Industries, Ltd., priority 1976, dated 1981).
Values after ≈ are worked out from the molar mass of the structure shown. Read-outs that look alike come from different tables or passages of the source.

Key:
E. coli NIHJ = assay: minimal inhibitory concentration against E. coli NIHJ; format: cell-based; details: Escherichia coli
Klebsiella pneumoniae DT = assay: minimal inhibitory concentration against K. pneumoniae DT; format: cell-based
[1] = tested on: Proteus morganii IFO 3168; assay: minimal inhibitory concentration against P. morganii IFO 3168; format: cell-based; details: Morganella morganii, IFO3168
Proteus rettgeri GN 4733 = assay: minimal inhibitory concentration against P. rettgeri GN 4733; format: cell-based; details: Providencia rettgeri, GN4733
P. vulgaris GN 4413 = assay: minimal inhibitory concentration against P. vulgaris GN 4413; format: cell-based; details: Proteus vulgaris, GN4413
[2] = tested on: Citrobacter freundii GN 99; assay: minimal inhibitory concentration against Cit. freundii GN 99; format: cell-based; details: GN99
[3] = tested on: Klebsiella pneumoniae GN 3835; assay: minimal inhibitory concentration against K. pneumoniae GN 3835; format: cell-based; details: GN3835
Serratia TN 0024 = assay: minimal inhibitory concentration against Serratia TN 0024; format: cell-based
[4] = tested on: Citrobacter freundii GN 1706; assay: minimal inhibitory concentration against Cit. freundii GN 1706; format: cell-based; details: GN1706
[5] = tested on: Proteus mirabilis GN 4359; assay: minimal inhibitory concentration against P. mirabilis GN 4359; format: cell-based; details: GN4359
[6] = tested on: Proteus vulgaris IFO 3988; assay: minimal inhibitory concentration against P. vulgaris IFO 3988; format: cell-based; details: IFO3988
[7] = tested on: Serratia marcescens IFO 12648; assay: minimal inhibitory concentration against Serr. marcescens IFO 12648; format: cell-based; details: IFO12648
E. coli T-7 = assay: minimal inhibitory concentration against E. coli T-7; format: cell-based; details: Escherichia coli, T7
E. coli 0-111 = assay: minimal inhibitory concentration against E. coli 0-111; format: cell-based, Escherichia coli; details: 0111
[8] = tested on: Enterobacter cloacae IFO 12937; assay: minimal inhibitory concentration against Ent. cloacae IFO 12937; format: cell-based
P. rettgeri 8(TN0336) = assay: minimal inhibitory concentration against P. rettgeri 8 (TN0336); format: cell-based, Proteus rettgeri; details: Providencia rettgeri
E. coli = assay: protective effect on infected mice (intraperitoneal infection with E. coli); format: in vivo; details: Escherichia coli, 168 h, male mice ICR/SLC, 7 days observation
Text: *Test animals: male mice (ICR/SLC) 5 mice per group per single
Infection: intraperitoneally with E. coli
Observation period: 7 days

Ps. aeruginosa Pd 1 = assay: minimal inhibitory concentration against Ps. aeruginosa Pd 1; format: cell-based; details: Pseudomonas aeruginosa, PD1
Ps. aeruginosa GN3407 = assay: minimal inhibitory concentration against Ps. aeruginosa GN3407; format: cell-based; details: Pseudomonas aeruginosa
Ps. aeruginosa P2 = assay: minimal inhibitory concentration against Ps. aeruginosa P2; format: cell-based; details: Pseudomonas aeruginosa
Ent. cloacae TN1282 = assay: minimal inhibitory concentration against Ent. cloacae TN1282; format: cell-based; details: Enterobacter cloacae
Ps. aeruginosa PM 3 = assay: minimal inhibitory concentration against Ps. aeruginosa PM 3; format: cell-based; details: Pseudomonas aeruginosa, PM3
[9] = tested on: Acinetobacter anitratus TN-1140; assay: minimal inhibitory concentration against Acinetobacter anitratus TN-1140; format: cell-based; details: Acinetobacter calcoaceticus, TN1140
[10] = Klebsiella pneumoniae, K. pneumoniae DT, read-out: minimal inhibitory concentration
[11] = P. morganii IFO 3168, read-out: minimal inhibitory concentration
[12] = P. rettgeri GN 4733, read-out: minimal inhibitory concentration
[13] = Citrobacter freundii, Cit. freundii GN 99, read-out: minimal inhibitory concentration
[14] = Klebsiella pneumoniae, K. pneumoniae GN 3835, read-out: minimal inhibitory concentration
[15] = TN0024, Serratia TN 0024, read-out: minimal inhibitory concentration
[16] = Citrobacter freundii, Cit. freundii GN 1706, read-out: minimal inhibitory concentration
[17] = Proteus mirabilis, P. mirabilis GN 4359, read-out: minimal inhibitory concentration
[18] = Proteus vulgaris, P. vulgaris IFO 3988, read-out: minimal inhibitory concentration
[19] = Serratia marcescens, Serr. marcescens IFO 12648, read-out: minimal inhibitory concentration
[20] = Escherichia coli, E. coli 0-111, read-out: minimal inhibitory concentration
[21] = Enterobacter cloacae, Ent. cloacae IFO12937, read-out: minimum inhibitory concentration
[22] = P. rettgeri 8(TN0336), read-out: minimal inhibitory concentration

Row | Structure (SMILES) | MIC (E. coli NIHJ) [µg/mL] | MIC (Klebsiella pneumoniae DT; [10]) [µg/mL] | MIC [1, 11] [µg/mL] | MIC (Proteus rettgeri GN 4733; [12]) [µg/mL] | MIC (P. vulgaris GN 4413) [µg/mL] | MIC [2, 13] [µg/mL] | MIC [3, 14] [µg/mL] | MIC (Serratia TN 0024; [15]) [µg/mL] | MIC [4, 16] [µg/mL] | MIC [5, 17] [µg/mL] | MIC [6, 18] [µg/mL] | MIC [7, 19] [µg/mL] | MIC (E. coli T-7) [µg/mL] | MIC (E. coli 0-111; [20]) [µg/mL] | MIC (P. rettgeri 8(TN0336); [22]) [µg/mL] | ED50 (E. coli; subcutaneous (SC)) [mg/kg] | MIC (Ps. aeruginosa Pd 1) [µg/mL] | MIC (Ps. aeruginosa GN3407) [µg/mL] | MIC (Ps. aeruginosa P2) [µg/mL] | MIC (Ent. cloacae TN1282) [µg/mL] | further results
1 | CO/N=C(\C(=O)NC1C(=O)N2C(C(=O)O)=C(CSc3nnc(C)s3)CSC12)c1csc(N)n1 (stereo not drawn) [(a), Sodium 7-[2-(2-aminothiazol-4-yl)-2-(syn)-methoxyiminoacetamido]-3-(2-methyl-1,3,4-thiadiazol-5-yl)thiomethyl-3-cephem-4-carboxylate] | 0.2 | 0.05 | 0.1 | 0.39 | 1.56 | 0.2 | 0.39 | 0.78 | 0.78 | 0.2 | 0.1 | 0.78 | 1.56 | 0.1 | ≤ 0.012 |  |  |  |  |  | MIC [8, 21]: 3.13 µg/mL
2 | CO/N=C(\C(=O)NC1C(=O)N2C(C(=O)O)=C(CSc3nnnn3CCN(C)C)CSC12)c1csc(N)n1 (stereo not drawn) [(e), 7-[2-(2-Aminothiazol-4-yl)-2-(syn)-methoxyiminoacetamido]-3-[1-(2-N,N-dimethylaminoethyl)-1,2,3,4-tetrazol-5-yl]thiomethyl-3-cephem-4-carboxylic acid betaine] | 0.2 (≈ 0.352 µM) | 0.1 (≈ 0.176 µM) | 0.2 (≈ 0.352 µM) | 0.78 (≈ 1.37 µM) | 1.56 (≈ 2.74 µM) | 0.2 (≈ 0.352 µM) | 0.2 (≈ 0.352 µM) | 0.78 (≈ 1.37 µM) | 0.78 (≈ 1.37 µM) | 0.39 (≈ 0.686 µM) | 0.2 (≈ 0.352 µM) | 1.56 (≈ 2.74 µM) | 1.56 (≈ 2.74 µM) | 0.024 (≈ 0.0422 µM) | 0.024 (≈ 0.0422 µM) |  |  |  |  |  | MIC [8, 21]: 6.25 µg/mL (≈ 11 µM)
3 | O=C(Cc1cccs1)N[C@@H]1C(=O)N2C(C(=O)[O-])=C(C[n+]3ccccc3)CS[C@H]12 [CER, cephaloridine, reference compound] |  |  |  |  |  |  |  |  |  |  |  |  |  |  |  | 1.25 |  |  |  |  | 
4 | CC1=C(C(=O)O)N2C(=O)[C@@H](NC(=O)[C@H](N)c3ccccc3)[C@H]2SC1 [CEX, cephalexin, reference compound] |  |  |  |  |  |  |  |  |  |  |  |  |  |  |  |  |  |  |  |  | ED50 (E. coli; oral): 2.51 mg/kg
5 | CO/N=C(\C(=O)NC1C(=O)N2C(C(=O)O)=C(COC(N)=O)CSC12)c1csc(N)n1 (stereo not drawn) [Example 1, sodium 7-[2-(2-aminothiazol-4-yl)-2-(syn)-methoxyiminoacetamido]-3-carbamoyloxymethyl-3-cephem-4-carboxylate] | 0.1 | < 0.012 | 0.39 | 0.05 | 1.56 | 0.2 | 0.05 | 0.2 | 0.39 | ≤ 0.02 | ≤ 0.02 | 1.56 | 0.39 | 0.024 | ≤ 0.012 | 0.015 | 50 | > 100 | 25 | 6.25 | MIC (Ps. aeruginosa PM 3): 3.13 µg/mL; MIC [9]: 6.25 µg/mL
6 | CO/N=C(\C(=O)NC1C(=O)N2C(C(=O)O)=C(CSc3nnnn3C)CSC12)c1csc(N)n1 (stereo not shown) [Example 2] | 0.1 (≈ 0.195 µM) | 0.024 (≈ 0.0469 µM) | 0.05 (≈ 0.0977 µM) | 0.2 (≈ 0.391 µM) | 0.39 (≈ 0.762 µM) | 0.1 (≈ 0.195 µM) | 0.2 (≈ 0.391 µM) | 0.2 (≈ 0.391 µM) | 0.2 (≈ 0.391 µM) | 0.1 (≈ 0.195 µM) | 0.024 (≈ 0.0469 µM) | 0.78 (≈ 1.52 µM) | 0.78 (≈ 1.52 µM) | 0.024 (≈ 0.0469 µM) | ≤ 0.012 | 0.022 | 12.5 (≈ 24.4 µM) | 50 (≈ 97.7 µM) | 50 (≈ 97.7 µM) | 1.56 (≈ 3.05 µM) | MIC (Ps. aeruginosa PM 3): 0.78 µg/mL (≈ 1.52 µM); MIC [9]: 25 µg/mL (≈ 48.9 µM)
7 | CO/N=C(\C(=O)NC1C(=O)N2C(C(=O)O)=C(COC(C)=O)CSC12)c1csc(N)n1 (stereo not drawn) [Example 3, sodium 7-[2-(2-aminothiazol-4-yl)-2-(syn)-methoxyiminoacetamido]cephalosporanate] | 0.2 | 0.024 | 0.2 | 0.2 | 0.78 | 0.2 | 0.05 | 0.78 | 0.39 | 0.05 | 0.024 | 3.13 | 0.78 | 0.05 | ≤ 0.012 | 0.018 | 25 | 50 | 50 | 6.25 | MIC (Ps. aeruginosa PM 3): 1.56 µg/mL; MIC [9]: 25 µg/mL
8 | CO/N=C(\C(=O)NC1C(=O)N2C(C(=O)O)=C(C)CSC12)c1csc(N)n1 (stereo not drawn) [Example 5, sodium 7-[2-(2-aminothiazol-4-yl)-2-(syn)-methoxyiminoacetamido]desacetoxycephalosporanate] | 0.78 | 0.2 | 12.5 | 0.1 | 1.56 | 3.13 | 0.2 | 1.56 | 6.25 | 0.1 | 0.2 | 12.5 | 6.25 | 0.39 | ≤ 0.012 | 0.111 | > 100 | > 100 | > 100 | 50 | MIC (Ps. aeruginosa PM 3): 25 µg/mL; MIC [9]: 12.5 µg/mL
9 | CO/N=C(\C(=O)NC1C(=O)N2C(C(=O)OCOC(=O)C(C)(C)C)=C(CSc3nnnn3C)CSC12)c1csc(N)n1 (stereo not shown) [Example 15] |  |  |  |  |  |  |  |  |  |  |  |  |  |  |  |  |  |  |  |  | ED50 (E. coli; oral): 0.11 mg/kg
10 | CO/N=C(/C(=O)NC1C(=O)N2C(C(=O)O)=C(COC(N)=O)CSC12)c1csc(N)n1 (stereo not drawn) [compound 27, sodium 7-[(2-aminothiazol-4-yl)-α-(anti)-methoxyimino]acetamido-3-carbamoyloxymethyl-3-cephem-4-carboxylate, reference compound] |  |  |  |  |  |  |  |  |  |  |  |  |  |  |  |  |  |  |  |  | MIC (Klebsiella pneumoniae DT; Klebsiella pneumoniae DT, read-out: MIC): 1.56 µg/mL; MIC ([1]; Proteus morganii IFO 3168, read-out: MIC): 0.78 µg/mL; MIC (Proteus rettgeri GN 4733; Proteus rettgeri GN 4733, read-out: MIC): 0.78 µg/mL; MIC ([2]; Citrobacter freundii GN 99, read-out: MIC): 1.56 µg/mL; MIC ([3]; Klebsiella pneumoniae GN 3835, read-out: MIC): 6.25 µg/mL; MIC (Serratia TN 0024; Serratia TN0024, read-out: MIC): 6.25 µg/mL; MIC ([4]; Citrobacter freundii GN 1706, read-out: MIC): 3.13 µg/mL; MIC ([5]; Proteus mirabilis GN 4359, read-out: MIC): 0.78 µg/mL; MIC ([6]; Proteus vulgaris IFO 3988, read-out: MIC): 0.39 µg/mL; MIC ([7]; Serratia marcescens IFO 12648, read-out: MIC): 12.5 µg/mL; MIC (E. coli 0-111; Escherichia coli 0-111, read-out: MIC): 0.78 µg/mL; MIC ([8]; IFO12937, Enterobacter cloacae IFO 12937, read-out: MIC): 25 µg/mL; MIC (P. rettgeri 8(TN0336); Proteus rettgeri 8 TNO 336, read-out: MIC): < 0.2 µg/mL
